# Results taken from PMC11035696, “Prospective de novo drug design with deep interactome learning” (Nature Communications, 2024).
# Tests used:
# [1] = Lipophilicity (LogD pH 7.4); type: physicochemical
# Description: (§1) Compounds 1–3 were characterized in a hybrid reporter gene assay for their agoniztic effect on human nuclear receptors PPARα/γ/δ, RXRα, FXRα, RARα in HEK293T cells. Compound 1 was tested in an isothermal titration calorimetry (ITC) assay to measure direct binding affinity to the ligand-binding domain of PPARγ. ADME properties were measured in standardized assays at Roche.
# (§2) SI11Absorption Distribution Metabolism and Excretion and Toxicity Data
# (§3) To assess the drug-like characteristics of the newly designed PPAR modulators, a series of tests were conducted covering various aspects of absorption, distribution, metabolism, and excretion (ADME) properties. Specifically, these assessments included the parallel artificial membrane permeability assay (PAMPA) with permeation co- […]
# (§4) efficients ([…]), LogD measurements, microsomal clearance, hepatocyte clearance, P-glycoprotein (Pgp) efflux ratio and binding and the unbound free fraction. […]
# (§5) Table S14: Absorption distribution metabolism and excretion (ADME) properties of compounds 1 and 2. The […]
# (§6) values for […], LogD, protein binding, P-glycoprotein (Pgp) efflux ratio and permeability, and hepato-cyte clearance are presented as the mean and standard deviation, with a sample size of N = 3, i.e., 3 technical replicates each. The values for microsomal clearance and CYP-inhibition represent single point measurements. […]
# [2] = Parallel artificial membrane permeability assay (PAMPA); type: in vitro ADME; details: read-out: […] permeation coefficient
# Description: as §1, §2, §3, §4, §5, §6
# [3] = Microsomal clearance, human; type: in vitro ADME; details: human microsomes, single point measurement
# Description: as §1, §2, §3
# (§7) efficients ([…]), LogD measurements, microsomal clearance, hepatocyte clearance, P-glycoprotein (Pgp) efflux ratio and binding and the unbound free fraction. […] For seven selected CYP proteins (i.e., Cyp3A4, Cyp1A2, Cyp2B6, Cyp2C9, Cyp2D6, Cyp2C19, and Cyp2C8) the half maximal inhibitory con-centration (IC50) was determined. […]
# (§8) Compounds 1 and 2 were validated for cytotoxicity on HEK293T cells. Figure S16 depicts the measured cyto-toxicity at two time points (i.e., 16h and 24h), 10 different concentrations (i.e., 0.05 - 20 µM), and 5 different
# [4] = Microsomal clearance, mouse; type: in vitro ADME; details: mouse microsomes, single point measurement
# Description: as §1, §2, §3, §7, §8
# [5] = Microsomal clearance, rat; type: in vitro ADME; details: rat microsomes, single point measurement
# Description: as §1, §2, §3, §7, §8
smiles,measurement,setting,value
CO[C@@H](Cc1ccc(OCCc2nc(-c3ccccc3)oc2C)c2ccsc12)C(=O)O [aleglitazar],logD,[1],1.4
same,Papp,[2],60 nm/s
same,"Microsomal clearance, human",[3],≥ 10 µL·min−1·mg−1 protein
same,"Microsomal clearance, mouse",[4],≥ 10 µL·min−1·mg−1 protein
same,"Microsomal clearance, rat",[5],≥ 10 µL·min−1·mg−1 protein
